# Test system: patient who is suffering from CRF of renal insufficiency at decompensation stage
# Experiment: Clinical application of the medicament in treating uremia and proteinuria (Embodiment 7 test method)
# Type: in vivo, human
# Source text: Patient selection: choose the patient who is suffering from CRF of renal insufficiency at decompensation stage (The content of SCr is within the range of 186-442 umol/L) to study. The primary disease is chronic glomerulonephritis (CGN) and nephrotic syndrome (NS), except CRF caused by renal arteriosclerosis, diabetic nephropathy and renal cysts.
# These investigated patients were randomly divided into groups, 50 patients in each group, aged 19-66 years (mean 44.6±12.6 years), with a course of disease 12-46 months (mean 22.6±8.6 months).
# Treatment group 1-6: The patients in embodiment 1-6 received the medicament mentioned of the invention, with a dose of 3 g/day, three times a day.
# Control group: The patients received the oral administration of coated aldehyde oxystarch 5 g-10 g, twice a day.
# All groups were treated with 1 month as a course of treatment.
# The patients stopped using Chinese and western medicine 2 weeks before treatment. […] They were given high quality low protein, low phosphorus and high calorie diet, correction of water and electrolyte disorders and acidosis, and anti-infection, in order to remove those reversible factors that may cause temporary renal dysfunction. Lotensin 5-20 mg was given to the patients with hypertension, once a day, or/and nifedipine 10-20 mg, three or four times a day.
# X2 test was used for enumeration data and t test was used for measurement data. […]
# [1] = 50 patients per group, after 3 courses of treatment (1 month each), medicament 3 g/day
# [2] = patients, after 3 courses of treatment
substance,measurement,setting,value
coated aldehyde oxystarch [Contrast],Total effective rate (%),"50 patients per group, after 3 courses of treatment",64%
same,Effective (case),[1],22 case
same,Ineffective (case),[1],18 case
same,Markedly effective (case),[1],10 case
same,Blood coagulation factor I,"Fib, patients, after 3 courses of treatment",3.88 ± 0.48 g/L
same,Hb,"hemoglobin, patients, after 3 courses of treatment",82.4 ± 9.5 g/L
same,Urine protein,"patients, 24 h urine protein, after 3 courses of treatment",2.78 ± 1.59 g/24 h
same,Blood usea nitrogen,[2],16.0 ± 6.4 mmol/L
same,SCr,[2],298.5 ± 76.8 µmol/L
same,Whole blood viscosity,[2],4.98 ± 1.0
same,Alb,"plasma albumin, patients, after 3 courses of treatment",30.4 ± 3.0 g/L
